Measurements published in patent publication US5925664A, “Method for treating ocular hypertension and glaucoma” (Sankyo Company, Limited, priority 1994, dated 1999).

What was measured:
[1] = test system: ocular hypertension model; test: Ocular tension lowering effect in rabbit ocular hypertension model (eye drops); assay type: in vivo, New Zealand white rabbits; settings: 50 μl by dropping; for AUC (area between the ocular tension curves of control group and drug application group): over 2 hours; for Maximum value of the lowered ocular tension: over 2 hours at intervals of 30 minutes
Method: New Zealand white rabbits each weighing 2 to 3 kg were used.
According to the method reported by Kurihara et al. [Ophthalmologic Pharmacology 4, 62-64, (1990)], an ocular hypertension model was prepared to examine the ocular tension lowering effect of the test compounds. After general anaesthesia with urethane, the ocular tension of the test rabbit was determined by use of a tonometer (Alcon Applanation Pneumatonography).
After a local anaesthetic was applied to the rabbit eye by dropping, 0.1 ml of 5% sodium chloride solution was injected into the vitreous body through a 30-gauge injection needle. At the time, 30 minutes after injection, when ocular hypertension was confirmed, 50 μl of a sample solution was applied by dropping. Then, the ocular tension was determined over 2 hours at intervals of 30 minutes.
The area (AUC) between the ocular tension curve obtained from the control group (without drug application) and that obtained from the drug application group, and the maximum value of the lowered ocular tension were calculated to regard as the indices of ocular tension lowering effect.

[2] = eye application; cited from earlier work

Structure (SMILES)	AUC (area between the ocular tension curves of control group and drug application group) ([1]; applied concentration 1.0%) [mmHg · hr]	Maximum value of the lowered ocular tension ([1]; applied concentration 1.0%) [mmHg]	further results
CCCc1nc(C(C)C)c(C(=O)O)n1Cc1ccc(-c2ccccc2-c2nn[nH]n2)cc1 [Compound C]	3.98	2.7	
CCc1nc2cccc(C(=O)O)c2n1Cc1ccc(-c2ccccc2C(=O)C(=O)O)cc1 [Compound I]	5.33	7.3	
CCCc1nc(C(C)(C)O)c(C(=O)O)n1Cc1ccc(-c2nn[nH]n2)cc1 [Compound F]	4.93	4.7	
CCCc1nc(C(C)(C)O)c(C(=O)O)n1Cc1ccc(-c2ccccc2-c2nn[nH]n2)cc1 [Compound A]	11.18	9.8	
CCCc1nc(CC)c(C(=O)O)n1Cc1ccc(-c2ccccc2-c2nn[nH]n2)cc1 [Compound D]			AUC (area between the ocular tension curves of control group and drug application group) ([1]; applied concentration 0.2%): 6.21 mmHg · hr; Maximum value of the lowered ocular tension ([1]; applied concentration 0.2%): 6.4 mmHg
CCCCc1nc(Cl)c(CO)n1Cc1ccc(-c2ccccc2-c2nnn[nH]2)cc1 [DUP 753, reference compound]	0.28	1.3	AUC (area between the ocular tension curves of control group and drug application group) ([1]; applied concentration 3.0%): 2.38 mmHg · hr; Maximum value of the lowered ocular tension ([1]; applied concentration 3.0%): 3.5 mmHg
CCCCC(=O)N(Cc1ccc(-c2ccccc2-c2nnn[nH]2)cc1)CC1(C(=O)O)CCCC1 [CGP 49870]			ocular tension lowering activity [2]: showed ocular tension lowering activity
CCCCC(=O)N(Cc1ccc(-c2ccccc2-c2nnn[nH]2)cc1)[C@H](C(=O)O)C(C)C [CGP 48933]			ocular tension lowering activity [2]: showed ocular tension lowering activity
CCCc1nc(C(C)O)c(C(=O)O)n1Cc1ccc(-c2ccccc2-c2nn[nH]n2)cc1 (stereo not drawn) [Compound G]	5.45	8.6	
CCCc1nc(C(C)(C)O)c(C(=O)O)n1Cc1ccc(-c2ccccc2C(=O)O)cc1 [Compound B]	3.21	2.6	
CCCCc1nc(C(C)(C)O)c(C(=O)O)n1Cc1ccc(-c2ccccc2C(=O)O)cc1 [Compound E]	4.90	7.6	
CCCc1nc(C(C)(C)O)c(C(=O)O)n1Cc1ccc(-c2ccccc2C(=O)C(=O)O)cc1 [Compound H]	5.58	8.6	
